Reference: patent US20080311036A1, “Imaging of Neural and Organ Injury or Damage” (UNIVERSITY OF FLORIDA RESEARCH FOUNDATION, INC., priority 2005, published 2008)

Key:
[1] = in vivo half-life after intravenous administration
Protocol: To enhance the brain residency of the selected “inhibitor-ligands,” a pro-drug strategy that promotes the “trapping” of their precursors in the CNS are evaluated (Prokai et al., 2000). […] The following scheme outlines the method employed to the selected inhibitor-ligands (see FIG. 5).

[2] = tested on: calpain; assay: in situ calpain inhibition in SH-SY5Y cells challenged with maitotoxin, SBDP145 by Western blot; type: cell-based; conditions: SH-SY5Y neuroblastoma cells, maitotoxin 0.3 nM, read-out: IC50 for blocking SBDP145
Protocol: The synthesized promoiety-conjugates Compound 1 and Compound 2, will be tested for oxidation stability at 37° C. in buffer (pH 7.4), rat plasma and rat-brain homogenate to probe the kinetics of the expected conversion to the pyridinium-ion intermediates. […] Compound 1 for calpain and Compound 2 will be further tested in in situ calpain and caspase inhibition analysis in cell culture. This may be important since both proteases are intracellular, so for the in vivo uses of the inhibitor-ligands, compounds must have the ability to penetrate cells and retain potency while inside cells. We will use neuroblastoma cell line SH-SY5Y, which can be manipulated to produce calpain-activation and necrosis with a neurotoxin maitotoxin (0.3 nM, Calbiochem) or caspase activation and apoptosis with calcium-chelator EGTA (5 mM) as we have shown before (McGinnis, Wang, Gnegy, (1999) J. Neurochem. 72, 1853-1863). Importantly the protease-produced spectrin breakdown products SBDP150 and SBDP145 (with maitotoxin) and SBDP150 and SBDP120 (with EGTA) are readily produced and quantitatively detected by Western blot analysis, which parallel the formation of SBDP's in brain injury in vivo. Prototype calpain inhibitor SJA6017 blocked SBDP145 at IC50 of 0.2 μM, while caspase inhibitor z-D-DCB blocks SBDP120 at IC50 of 5 μM. […]

[3] = known calpain inhibitors; cited from earlier work

SMILES	in vivo half-life [1]	IC50 [2] [nM]	crossing of cell membranes [3]
CC(C)C[C@@H](C=O)NC(=O)[C@@H](NS(=O)(=O)c1ccc(F)cc1)C(C)C [SJA-6017]	ca. 11 min	200	–
CC(=O)N[C@@H](CC(C)C)C(=O)N[C@@H](CC(C)C)C(=O)N[C@H](C=O)CCCNC(=N)N [leupeptin, N-acetyl-Leu-Leu-argininal]	–	–	cross cell membranes only poorly
